On to `COc1ccc2c(c1OC(C)=O)NC(OC)C1CCCN1C2=O` (configuration not stated), for which the melting point was 143 to 145 °C.

Consider `Cn1cc(C=O)c(-c2ccc([N+](=O)[O-])o2)n1`, for which the melting point was in the range of 181 to 182 °C. Then `O=c1c(NCc2cccc(O)c2)c(Nc2ccc(O)c(-c3ccccn3)c2)c1=O`, with 271 to 272 °C. Then `CC1=C(/C=C/C(C)=C/C=C/C(C)=C/C(=O)O)C(C)(C)CCC1=O`, with 184 to 187 °C; and `O=[N+]([O-])c1cc2nc(O)c(O)nc2cc1Br`, with over 300 °C; and `Cc1c(-c2ccc(O)c(Cl)c2)sc(C=O)c1-c1ccc(O)c(F)c1`, with 227 to 229 °C. Compound `COc1ccc2c(c1)C(=O)C(Cc1ccccc1)CN2S(=O)(=O)c1ccc(C)cc1` (configuration not stated) gave a melting point of 101 to 103 °C. Consider `COC(=O)[C@H](Cc1c[nH]cn1)NC(=O)[C@H](Cc1ccccc1)NC(=O)OCc1ccccc1`, for which the melting point lay within 113 to 116 °C. The result for `COC(=O)COc1ccc(Cl)cc1CC1CNC(=O)CN(S(=O)(=O)c2ccc(Cl)cc2)C1=O` (configuration not stated) reads 138 to 140 °C; that for `CCCCCCCCCCCCc1ccccc1C(SCC(=O)O)C(=O)O` (configuration not stated), 65 to 66 °C.

Compound `COC1CCC(OS(=O)(=O)c2ccc(C)cc2)C(COS(=O)(=O)c2ccc(C)cc2)O1` (configuration not stated) came in with a melting point of 110 to 112 °C. The result for `O=C(O)c1cccc2ccc(-c3ccccc3)nc12` reads 159 to 161 °C; that for `O=C(Cc1cccc2ccccc12)Nc1cc([C@H]2C[C@@H](NC(=O)c3cccc(C(F)(F)F)c3)C2)[nH]n1`, 143 °C; that for `O=c1ccc2ccc(OCCCN3CCCN(c4cccc(Cl)c4Cl)CC3)cc2[nH]1`, 117 to 118 °C.

`Cn1ncc(CO)c1-c1ccc(Cl)cc1C(O)c1ccccc1F` (configuration not stated) had a melting point of 152 to 155 °C.

With `N#Cc1ccc(C(=O)C=Cc2ccccc2)cc1`, the melting point turned out to be 120 °C.

In turn, `CC(C)(C)OC(=O)Nc1ccc(C2=CCN(C(=O)OC(C)(C)C)CC2)cc1[N+](=O)[O-]` registered a melting point of 85 to 87 °C. Then `COc1ccc2cc(C3=CCC4(CC3)CCN(C)CC4)ccc2c1`, with 147 to 150 °C. The result for `COc1ccc(-c2c3ccc(OC)cc3cc3sc4ccccc4c23)cc1` reads 158 to 159 °C; that for `Cc1nc(N2CCN(Cc3ccc(F)c(F)c3)C2=O)sc1C(N)=O`, 221 to 223 °C; that for `CC(CC(Br)CO)C1CCC2C(O)CCCC12C` (configuration not stated), 153 to 154 °C. The result for `CCCn1c(=O)c(C(=O)OCC)c(N)c2cccnc21` reads 165 to 168 °C; that for `COc1ccc2c(OC(C)C)c(C(N)=O)ccc2c1`, 183 to 184 °C; that for `CSc1ccccc1-c1ccc(C(=O)N2Cc3ccc(C(=O)NCc4cccnc4)n3Cc3ccccc32)cc1`, 172 to 175 °C.

`NCC1c2ccccc2C=Cc2ccccc21`: the melting point is 95 to 96.5 °C.

`CC(=O)c1cc2c(cc1OCCCCCBr)OC(C(=O)OC(C)C(C)O)CC2` (configuration not stated) had a melting point of 80 to 83 °C. `COc1c(Cl)ccc(C#N)c1F` returned a melting point of 94 to 97 °C. Regarding `CCNC(=O)c1ccc(N2CCN(Cc3cc(Cc4ccccc4)c4c(c3)NC(=O)C(C)O4)CC2)cc1` (configuration not stated), the melting point lay in the range of 198 to 206 °C. The result for `O=C1OC(OC(=O)c2cccnc2Cl)c2ccccc21` (configuration not stated) reads 137 to 138 °C; that for `CC(=O)O[C@H]1CS[C@H](COC(=O)c2ccccc2)O1` (relative stereo), 67 to 68 °C.

With `CSCC[C@H](NC(=O)[C@H](CC(C)C)NC(=O)OCc1ccccc1)C(=O)CSC`, the melting point was 61 to 67 °C. Then `COc1ccc(N2CCC(C(N)=O)CC2)cc1`, with 178 to 181 °C.

`Cc1ccc(-n2c(-c3cccc4ccccc34)ccc2-c2cccc3ccccc23)cc1` showed a melting point of 105 to 106 °C. `C[Si](C)(C)c1cccc(C[C@@H]2N[C@@H](c3ccccc3)[C@@H](c3ccccc3)OC2=O)c1` registered a melting point of 94 to 95 °C.

With `O=C(O)Cc1sc2nc3ncccc3n2c1-c1ccc(Cl)cc1`, the melting point lay in the range of 250 to 252 °C. Then `CCC(O)(CC)[C@H](C[C@H](O)[C@H](CC1CCCCC1)NC(=O)OC(C)(C)C)C(=O)NC`, with 152 to 155 °C; and `O=C(CCCCl)Nc1ccccc1`, with 64 to 66 °C. For the compound `CN(C)CCN(C)C(=O)Cn1c(-c2ccc(Cl)cc2)nc2cccnc21`, the melting point fell in the range of 120 to 122 °C. The result for `O=C(O)CCCCCCC(=O)c1cccnc1` reads 113 to 115 °C; that for `Cc1cc(Cl)cc(C(=O)c2[nH]c(=O)[nH]c(=O)c2C(C)C)c1`, 254 to 255 °C; that for `COc1cccc(Nc2c(N)cc(C(=O)O)cc2S(N)(=O)=O)c1`, 232 to 234 °C. As for `CCOC(=O)C1CNc2c(OC)cc(Cc3cnc(N)nc3N)c(OC)c2C1` (configuration not stated), the melting point is 186 to 188 °C.

The compound `COc1ccccc1NC(=O)Nc1nc(Nc2ccc(-c3ccccc3)cc2)nc(N(CCC(=O)O)Cc2ccc(Cl)c(Cl)c2)n1` registered a melting point of 215 to 220 °C. The result for `CC(=O)OC/C(=C(\C(=O)N(C)CC(C)(C)S)c1ccc(F)cc1)c1ccc(S(C)(=O)=O)cc1` reads 45 to 47 °C.

In the case of `COc1ccc(CN(C)CC=CCc2ccc(NC(=O)c3cccc4c(=O)c5ccccc5[nH]c34)cc2)cc1OC`, the melting point turned out to be 140 °C.

`CCc1cc(-c2ccc(Cl)cc2)nc2c(C(=O)Nc3cccc(S(=O)(=O)NC(C)(C)CO)c3)cnn12`: the melting point lay within 239 to 240 °C. As to `CN1CC(NC(=S)NC(=O)c2ccccc2)CC2c3cccc4[nH]cc(c34)CC21` (configuration not stated), the melting point lay within 224 to 225 °C. Then `N#Cc1c(N)cccc1N`, with 91 to 92 °C; and `CCn1nccc1-c1ccc2[nH]c3c(cc(-c4ccc(Cl)cc4Cl)c(=O)n3C)c2c1`, with 255 to 258 °C.

Consider `Cc1cc(C2=CO[C@@](c3cc(Cl)cc(Cl)c3)(C(F)(F)F)C2)ccc1C(=O)NCC(=O)NCC(F)(F)F`, for which the melting point was 120 to 155 °C. Then `O=[N+]([O-])c1ccc(Sc2ccccc2)cc1OCc1ccccc1`, with 77 to 79 °C. Then `N#Cc1cc(/C=C/C(c2cc(Cl)c(Cl)c(Cl)c2)C(F)(F)F)ccc1-n1cnc(N)n1` (configuration not stated), with 72 to 75 °C. `CC(C)OC(=O)N[C@H](C(=O)N[C@H](CN)C(C)C)C(C)C` came in with a melting point of 106 °C.

`Cc1cccc(C)c1O[C@@H]1CCNC[C@H]1O` (relative stereo) gave a melting point of 131 to 133 °C. Then `CCCc1nc2cccc(C(=S)OC)c2n1Cc1ccc(-c2ccccc2-c2nc(=O)o[nH]2)cc1`, with 220 to 221 °C; and `CCCCCCCCOC(=O)CCc1cc(-n2nc3ccc(S(=O)(=O)c4ccccc4)cc3n2)c(O)c(C(C)(C)C)c1`, with 62 to 63 °C; and `Cc1cc(-c2cc(C(F)(F)F)n3ncc(-c4nc(-c5ccc(S(N)(=O)=O)cc5)no4)c3n2)ccc1C(F)(F)F`, with 273 °C. Then `N#CCCCSc1nccc(NC(N)=NCC(F)(F)F)n1`, with 137 °C; and `CC(C)C(c1ccccc1N1CCCCC1)C(C(N)=O)c1ccc(C(=O)O)cc1` (configuration not stated), with 215 to 217 °C.

Compound `C[C@H]1C[C@@](O)(c2cnc(Cl)s2)CCO1` displayed a melting point of 40 to 42 °C. Then `CC(C)(C)[C@H]1CC[C@@H](Nc2nnc(CCc3cccnc3)c3ccccc23)CC1`, with 155 to 157 °C. `O=C(O)c1ccc(C(=O)Nc2cccc([N+](=O)[O-])c2)cc1` returned a melting point of 319 °C. The result for `Nc1ccc(C(=O)OCCOC(=O)C[C@@H](C(=O)O)n2c3ccccc3c3ccccc32)cc1` reads 100 °C. Then `CC(C)=CCOC1=CC(=O)c2ccccc2C1=O`, with 60 °C.

In turn, `C#CCc1c(C)nc2c(OCc3ccncc3C)cccn12` yielded a melting point of 156 to 157 °C. Regarding `CC(C)(C)OC(=O)NCCCCC(N)C(=O)Nc1ccccc1` (configuration not stated), the melting point lay within 72 to 74.5 °C. The result for `COc1ccc(C(=O)c2noc(CC(=O)O)n2)cc1` reads 126 to 127 °C. The result for `Cn1cc(S(=O)(=O)NC(C)(C)C)c(=O)n(C)c1=O` reads 143 to 144 °C; that for `COC(=O)CC(O)(c1ccccc1)c1ccc2nc(N)n(S(=O)(=O)C(C)C)c2c1` (configuration not stated), 147 to 149 °C. The compound `COc1ccc(-c2cc(F)c3c(Cl)c(O)ccc3c2)cc1` had a melting point of 120 to 124 °C. Then `O=[N+]([O-])c1ccc2ccn(CCCCl)c2c1`, with 85 to 87 °C; and `CC(C)CCC(=O)OC1c2ccccc2C(=O)N1c1ccc2ccc(F)nc2n1` (configuration not stated), with 154 °C. The result for `COc1cc(OC)n2nc(S(=O)(=O)Nc3c(Cl)cccc3Cl)nc2c1` reads 252 to 253 °C; that for `COC(=O)Cc1ccc(C(F)(F)F)cc1[N+](=O)[O-]`, 104 to 105 °C; that for `CCOC(=O)Cc1cccc(-c2nc(COc3ccc(C=O)cc3OC)c(C)o2)c1`, 113 to 114 °C. The result for `O=c1ncc(F)cn1COCc1ccc(Cl)cc1` reads 103 °C; that for `Cc1csc(C)c1N(Cn1cccn1)C(=O)CCl`, 88 to 89 °C; that for `CCN(CC)CCNc1nc2cccnc2n(-c2ccc(OC)cc2)c1=O`, 167 to 168 °C.

With `O=C1CC(=O)OC2(O1)SC=CS2`, the melting point lay within 59 to 60 °C. Compound `Cc1cc(OC/C=C(/c2ccc(Cl)cc2)c2ccc(C#CCN3CCC(CO)CC3)cc2)ccc1OCC(=O)O` yielded a melting point of 94 to 104 °C. `CC(=O)NS(=O)(=O)c1cc(C(=O)O)cc(N)c1Oc1ccccc1` yielded a melting point of 290 to 293 °C. The result for `CNCCn1nc(N)c2cc3cc(OC)ccc3nc21` reads 142 to 144 °C. Then `CC(C)(C)c1ccc(C#N)cc1NC(=O)NCc1ccccc1`, with 160 to 161 °C; and `COC(=O)c1ccc2c(c1C(=O)OC)C(=O)OC2=O`, with 178 to 180 °C; and `COc1ccc(C(=O)NN=Cc2ccc3ccccc3n2)cc1`, with 217 to 218 °C. The compound `Nc1ncn(C[C@@H](CO)OCP(=O)(O)O)c(=O)n1` had a melting point of 175 to 178 °C. Then `CC(C)(C)OC(=O)NCC1(CC(=O)O)CCCCC1`, with 109 to 111 °C.

Usually melting point stands for the temperature of the solid-liquid transition.

These data come from a melting point compilation (Tetko et al.; mined from patent text by program, amines drawn as free bases though some values may be those of a salt).
